Reference: PubChem BioAssay (NCI)
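How tested: cells in 96-well plates exposed to compound for 48 hours at five concentrations. TGI: concentration producing complete growth inhibition.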

Key:
Test in all cases: NCI-60 cell line screen, 48 h
U251 CNS = tested on: U251 CNS
NCI/ADR-RES ovarian = tested on: NCI/ADR-RES ovarian
MDA-MB-231 breast = tested on: MDA-MB-231 breast
RXF 393 renal = tested on: RXF 393 renal
786-0 renal = tested on: 786-0 renal
SW-620 colon = tested on: SW-620 colon
NCI-H23 lung = tested on: NCI-H23 lung
K-562 leukemia = tested on: K-562 leukemia
MCF7 breast = tested on: MCF7 breast
UACC-62 melanoma = tested on: UACC-62 melanoma
CCRF-CEM leukemia = tested on: CCRF-CEM leukemia
ACHN renal = tested on: ACHN renal
SK-MEL-2 melanoma = tested on: SK-MEL-2 melanoma
OVCAR-8 ovarian = tested on: OVCAR-8 ovarian
KM12 colon = tested on: KM12 colon
SR leukemia = tested on: SR leukemia
DU-145 prostate = tested on: DU-145 prostate
NCI-H522 lung = tested on: NCI-H522 lung
MDA-MB-435 = tested on: MDA-MB-435
HOP-62 NSCLC = tested on: HOP-62 NSCLC
COLO 205 colon = tested on: COLO 205 colon
M14 melanoma = tested on: M14 melanoma
HOP-92 NSCLC = tested on: HOP-92 NSCLC
IGROV1 ovarian = tested on: IGROV1 ovarian
EKVX NSCLC = tested on: EKVX NSCLC
CAKI-1 renal = tested on: CAKI-1 renal
HCC-2998 colon = tested on: HCC-2998 colon
SNB-19 CNS = tested on: SNB-19 CNS
OVCAR-3 ovarian = tested on: OVCAR-3 ovarian
TK-10 renal = tested on: TK-10 renal
MALME-3M melanoma = tested on: MALME-3M melanoma
MOLT-4 leukemia = tested on: MOLT-4 leukemia
SK-MEL-5 melanoma = tested on: SK-MEL-5 melanoma
T-47D breast = tested on: T-47D breast
HCT-116 colon = tested on: HCT-116 colon
SF-295 CNS = tested on: SF-295 CNS
BT-549 breast = tested on: BT-549 breast
LOX IMVI melanoma = tested on: LOX IMVI melanoma
UACC-257 melanoma = tested on: UACC-257 melanoma
SK-MEL-28 melanoma = tested on: SK-MEL-28 melanoma
OVCAR-4 ovarian = tested on: OVCAR-4 ovarian
OVCAR-5 ovarian = tested on: OVCAR-5 ovarian
HCT-15 colon = tested on: HCT-15 colon
SF-268 CNS = tested on: SF-268 CNS
NCI-H460 lung = tested on: NCI-H460 lung
MDA-N = tested on: MDA-N
PC-3 prostate = tested on: PC-3 prostate
HL-60(TB) leukemia = tested on: HL-60(TB) leukemia
SF-539 CNS = tested on: SF-539 CNS
HT29 colon = tested on: HT29 colon
UO-31 renal = tested on: UO-31 renal
SN12C renal = tested on: SN12C renal
SK-OV-3 ovarian = tested on: SK-OV-3 ovarian
HS 578T breast = tested on: HS 578T breast
A549 NSCLC = tested on: A549 NSCLC
NCI-H226 lung = tested on: NCI-H226 lung
RPMI-8226 leukemia = tested on: RPMI-8226 leukemia
A498 renal = tested on: A498 renal
SNB-75 CNS = tested on: SNB-75 CNS

## COCOc1cc(OC)ccc1C/C=N/O
U251 CNS
  TGI: > 100 µM
NCI/ADR-RES ovarian
  TGI: > 100 µM
MDA-MB-231 breast
  TGI: > 100 µM
RXF 393 renal
  TGI: > 100 µM
786-0 renal
  TGI: > 100 µM
SW-620 colon
  TGI: > 100 µM
NCI-H23 lung
  TGI: > 100 µM
K-562 leukemia
  TGI: > 100 µM
MCF7 breast
  TGI: > 100 µM
UACC-62 melanoma
  TGI: > 100 µM
CCRF-CEM leukemia
  TGI: > 100 µM
ACHN renal
  TGI: > 100 µM
SK-MEL-2 melanoma
  TGI: > 100 µM
OVCAR-8 ovarian
  TGI: > 100 µM
KM12 colon
  TGI: > 100 µM
SR leukemia
  TGI: > 100 µM
DU-145 prostate
  TGI: > 100 µM
NCI-H522 lung
  TGI: > 100 µM
MDA-MB-435
  TGI: > 100 µM
HOP-62 NSCLC
  TGI: > 100 µM
COLO 205 colon
  TGI: > 100 µM
M14 melanoma
  TGI: > 100 µM
HOP-92 NSCLC
  TGI: > 100 µM
IGROV1 ovarian
  TGI: > 100 µM
EKVX NSCLC
  TGI: > 100 µM
CAKI-1 renal
  TGI: > 100 µM
HCC-2998 colon
  TGI: > 100 µM
SNB-19 CNS
  TGI: > 100 µM
OVCAR-3 ovarian
  TGI: > 100 µM
TK-10 renal
  TGI: > 100 µM
MALME-3M melanoma
  TGI: > 100 µM
MOLT-4 leukemia
  TGI: > 100 µM
SK-MEL-5 melanoma
  TGI: > 100 µM
T-47D breast
  TGI: > 100 µM
HCT-116 colon
  TGI: > 100 µM
SF-295 CNS
  TGI: > 100 µM
BT-549 breast
  TGI: > 100 µM
LOX IMVI melanoma
  TGI: > 100 µM
UACC-257 melanoma
  TGI: > 100 µM
SK-MEL-28 melanoma
  TGI: > 100 µM
OVCAR-4 ovarian
  TGI: > 100 µM
OVCAR-5 ovarian
  TGI: > 100 µM
HCT-15 colon
  TGI: > 100 µM
SF-268 CNS
  TGI: > 100 µM
NCI-H460 lung
  TGI: > 100 µM
MDA-N
  TGI: > 100 µM
PC-3 prostate
  TGI: > 100 µM
HL-60(TB) leukemia
  TGI: > 100 µM
SF-539 CNS
  TGI: > 100 µM
HT29 colon
  TGI: > 100 µM
UO-31 renal
  TGI: > 100 µM
SN12C renal
  TGI: > 100 µM
SK-OV-3 ovarian
  TGI: > 100 µM
HS 578T breast
  TGI: > 100 µM
A549 NSCLC
  TGI: > 100 µM
NCI-H226 lung
  TGI: > 100 µM

## O=C(O)CC1OCC=C2C[N+]3([O-])CCC45c6ccccc6NC4C1C2CC53 (stereo not given)
U251 CNS
  TGI: > 100 µM
NCI/ADR-RES ovarian
  TGI: > 100 µM
MDA-MB-231 breast
  TGI: > 100 µM
RXF 393 renal
  TGI: > 100 µM
786-0 renal
  TGI: > 100 µM
RPMI-8226 leukemia
  TGI: > 100 µM
SW-620 colon
  TGI: > 100 µM
NCI-H23 lung
  TGI: > 100 µM
K-562 leukemia
  TGI: > 100 µM
MCF7 breast
  TGI: > 100 µM
UACC-62 melanoma
  TGI: > 100 µM
A498 renal
  TGI: > 100 µM
ACHN renal
  TGI: > 100 µM
SK-MEL-2 melanoma
  TGI: 34.2 µM
OVCAR-8 ovarian
  TGI: > 100 µM
KM12 colon
  TGI: > 100 µM
SR leukemia
  TGI: > 100 µM
DU-145 prostate
  TGI: > 100 µM
NCI-H522 lung
  TGI: > 100 µM
MDA-MB-435
  TGI: > 100 µM
HOP-62 NSCLC
  TGI: > 100 µM
COLO 205 colon
  TGI: > 100 µM
M14 melanoma
  TGI: > 100 µM
HOP-92 NSCLC
  TGI: > 100 µM
IGROV1 ovarian
  TGI: > 100 µM
EKVX NSCLC
  TGI: > 100 µM
CAKI-1 renal
  TGI: > 100 µM
SNB-19 CNS
  TGI: > 100 µM
OVCAR-3 ovarian
  TGI: > 100 µM
TK-10 renal
  TGI: > 100 µM
MALME-3M melanoma
  TGI: > 100 µM
MOLT-4 leukemia
  TGI: > 100 µM
SK-MEL-5 melanoma
  TGI: > 100 µM
T-47D breast
  TGI: > 100 µM
HCT-116 colon
  TGI: > 100 µM
SF-295 CNS
  TGI: > 100 µM
BT-549 breast
  TGI: > 100 µM
LOX IMVI melanoma
  TGI: > 100 µM
UACC-257 melanoma
  TGI: > 100 µM
SK-MEL-28 melanoma
  TGI: > 100 µM
OVCAR-4 ovarian
  TGI: > 100 µM
OVCAR-5 ovarian
  TGI: > 100 µM
HCT-15 colon
  TGI: > 100 µM
SF-268 CNS
  TGI: > 100 µM
NCI-H460 lung
  TGI: > 100 µM
MDA-N
  TGI: > 100 µM
PC-3 prostate
  TGI: > 100 µM
HL-60(TB) leukemia
  TGI: > 100 µM
SF-539 CNS
  TGI: > 100 µM
HT29 colon
  TGI: > 100 µM
UO-31 renal
  TGI: > 100 µM
SN12C renal
  TGI: > 100 µM
SK-OV-3 ovarian
  TGI: > 100 µM
HS 578T breast
  TGI: > 100 µM
A549 NSCLC
  TGI: > 100 µM
NCI-H226 lung
  TGI: > 100 µM

## O=C(O)COc1cc(-c2ccccc2)nc2ccc(F)cc12
U251 CNS
  TGI: > 100 µM
NCI/ADR-RES ovarian
  TGI: > 100 µM
MDA-MB-231 breast
  TGI: > 100 µM
786-0 renal
  TGI: > 100 µM
RPMI-8226 leukemia
  TGI: > 100 µM
SW-620 colon
  TGI: > 100 µM
NCI-H23 lung
  TGI: > 100 µM
K-562 leukemia
  TGI: > 100 µM
SNB-75 CNS
  TGI: > 100 µM
MCF7 breast
  TGI: > 100 µM
UACC-62 melanoma
  TGI: > 100 µM
A498 renal
  TGI: > 100 µM
CCRF-CEM leukemia
  TGI: > 100 µM
ACHN renal
  TGI: > 100 µM
SK-MEL-2 melanoma
  TGI: > 100 µM
OVCAR-8 ovarian
  TGI: > 100 µM
KM12 colon
  TGI: > 100 µM
SR leukemia
  TGI: > 100 µM
DU-145 prostate
  TGI: > 100 µM
NCI-H522 lung
  TGI: > 100 µM
MDA-MB-435
  TGI: > 100 µM
HOP-62 NSCLC
  TGI: > 100 µM
COLO 205 colon
  TGI: > 100 µM
M14 melanoma
  TGI: > 100 µM
HOP-92 NSCLC
  TGI: > 100 µM
IGROV1 ovarian
  TGI: > 100 µM
EKVX NSCLC
  TGI: > 100 µM
CAKI-1 renal
  TGI: > 100 µM
HCC-2998 colon
  TGI: > 100 µM
SNB-19 CNS
  TGI: > 100 µM
OVCAR-3 ovarian
  TGI: > 100 µM
TK-10 renal
  TGI: > 100 µM
MALME-3M melanoma
  TGI: > 100 µM
MOLT-4 leukemia
  TGI: > 100 µM
SK-MEL-5 melanoma
  TGI: > 100 µM
T-47D breast
  TGI: > 100 µM
HCT-116 colon
  TGI: > 100 µM
SF-295 CNS
  TGI: > 100 µM
BT-549 breast
  TGI: > 100 µM
LOX IMVI melanoma
  TGI: > 100 µM
UACC-257 melanoma
  TGI: > 100 µM
SK-MEL-28 melanoma
  TGI: > 100 µM
OVCAR-4 ovarian
  TGI: > 100 µM
OVCAR-5 ovarian
  TGI: > 100 µM
HCT-15 colon
  TGI: > 100 µM
SF-268 CNS
  TGI: > 100 µM
NCI-H460 lung
  TGI: > 100 µM
MDA-N
  TGI: > 100 µM
PC-3 prostate
  TGI: > 100 µM
HL-60(TB) leukemia
  TGI: > 100 µM
SF-539 CNS
  TGI: > 100 µM
HT29 colon
  TGI: > 100 µM
UO-31 renal
  TGI: > 100 µM
SN12C renal
  TGI: > 100 µM
SK-OV-3 ovarian
  TGI: > 100 µM
HS 578T breast
  TGI: > 100 µM
A549 NSCLC
  TGI: > 100 µM
NCI-H226 lung
  TGI: > 100 µM
